Data on 35 compounds can be found in patent US10519106B2, “Urea derivative and use therefor” (Toray Industries, Inc., priority 2015, dated 2019).

Broadly, the IC50 is the concentration that inhibits the measured activity by half. Higher therefore signals a need for much substance.

The structures appear in SMILES notation. Counter-ions that a name gives are not always drawn.

T1 sequence (Q08345 444-876 isoform Q08345-2 limits assumed): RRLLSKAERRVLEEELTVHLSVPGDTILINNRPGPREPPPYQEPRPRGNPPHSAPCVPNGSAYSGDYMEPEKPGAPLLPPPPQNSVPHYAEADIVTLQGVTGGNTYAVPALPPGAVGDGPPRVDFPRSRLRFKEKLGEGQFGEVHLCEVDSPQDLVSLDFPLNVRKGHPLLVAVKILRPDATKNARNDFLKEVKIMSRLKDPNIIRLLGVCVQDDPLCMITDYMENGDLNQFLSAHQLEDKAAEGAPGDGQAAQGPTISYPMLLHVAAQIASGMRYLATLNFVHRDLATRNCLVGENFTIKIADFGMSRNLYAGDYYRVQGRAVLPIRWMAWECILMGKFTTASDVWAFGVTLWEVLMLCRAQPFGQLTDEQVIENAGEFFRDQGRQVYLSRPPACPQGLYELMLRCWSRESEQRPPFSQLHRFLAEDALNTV

The experiment addresses T1, intracellular domain of DDR1 (Homo sapiens, UniProt Q08345).
T1 construct: the intracellular domain of DDR1 (in a final concentration of 5 ng/μL) (Carna Biosciences, Inc.); purchased Carna Biosciences, Inc
Put plainly: Evaluation of DDR1 inhibition activity with HTRF KinEASE-TK kit. Format: biochemical. To be noted: intracellular domain of DDR1 5 ng/μL, ATP 25 mol/L (so in the source), TK Substrate-biotin 1000 nmol/L, room temperature, one hour. On the procedure: The DDR1 inhibition activity of the compounds of Examples 1 to 51 was evaluated with HTRF® KinEASE-TK kit (Cisbio Bioassays).
Each test substance was dissolved in dimethyl sulfoxide (hereinafter referred to as DMSO) and then used for the evaluation as described below. Moreover, each of test substances and reagents was diluted in the kinase buffer (Cisbio Bioassays) prepared by adding thereto MgCl2, MnCl2, DTT, and the Supplemental Enzyme buffer (Cisbio Bioassays) to concentrations of 5 mmol/L, 0.5 mmol/L, 0.25 mmol/L, and 50 nmol/L, respectively, and then used. Each test substance (in DMSO in a final concentration of 1%), the intracellular domain of DDR1 (in a final concentration of 5 ng/μL) (Carna Biosciences, Inc.), the phosphate donor ATP (in final concentration of 25 mol/L) (Sigma), and the substrate TK Substrate-biotin (in a final concentration of 1000 nmol/L) (Cisbio Bioassays) were added to a 384-well black plate (Corning) and allowed to react at room temperature for one hour. After completion of the reaction, the TK Antibody-Cryptate (Cisbio Bioassays) and the Streptavidin-XL665 (Cisbio Bioassays) were added thereto and allowed to react at room temperature for one hour. In addition, the plate was provided with a well to which a test substance was not added, and with a well to which the intracellular domain of DDR1 and a test substance were not added.
The fluorescence intensity in each well was measured using a multi-label counter (Envision, PerkinElmer; excitation wavelength: 320 nm, measurement wavelength: 665 nm and 620 nm) to calculate a Ratio (the fluorescence intensity at 665 nm/the fluorescence intensity at 620 nm). The inhibition rate (%) of a test substance at each concentration was calculated based on the formula below. Inhibition rate (%)=([the Ratio obtained from the well containing no test substance]−[the Ratio from a well containing a test substance])/([the Ratio obtained from the well containing no test substance]−[the Ratio obtained from the well containing no intracellular domain of DDR1 and no test substance])×100
The calculated inhibition rates were fitted to a sigmoidal dose-response curve by regression analysis using the Prism 5.04 (GraphPad Software, Inc.) to calculate the ICso0 value of the test substance.
A general note: In TR-FRET formats the signal depends on donor and acceptor labels being close together.
Turning to `COc1ccc(S(F)(F)(F)(F)F)cc1NC(=O)NCc1ccccc1OCc1ccncc1` [Compound of Example 1], the IC50 amounted to 52.1 nM.

Turning to `COc1c(CO)cc(S(F)(F)(F)(F)F)cc1NC(=O)NCc1ccccc1OCc1ccncc1` [Compound of Example 2], the IC50 came to 26.1 nM.

`COc1ccc(OC(F)(F)F)cc1NC(=O)NCc1ccccc1OCc1cccnc1` [Compound of Example 3]: the IC50 is 838 nM. This IC50 is about 32-fold higher than that of the compound before.

`COc1ccc(OC(F)(F)F)cc1NC(=O)NCc1ccccc1OCc1ccncc1` [Compound of Example 4] registered an IC50 of 51.7 nM. Compared with the last compound, the IC50 is about 16-fold lower.

For the compound `COc1ccc(OC(F)(F)F)cc1NC(=O)NCc1ccccc1OCc1ccnc(C(N)=O)c1` [Compound of Example 5, 4-((2-((3-(2-methoxy-5-(trifluoromethoxy)phenyl)ureido)methyl)phenoxy)methyl)picolinamide], the IC50 was determined as 47 nM.

`COc1ccc(C(F)(F)F)cc1NC(=O)NCc1cccc(OCc2cccnc2)c1` [Compound of Example 6]: 32.5 nM corresponded to half-maximal inhibition (IC50).

For `COC(=O)c1ccc(COc2ccccc2CNC(=O)Nc2cc(OC(F)(F)F)ccc2OC)cc1` [Compound of Example 7, methyl 4-((2-((3-(2-methoxy-5-(trifluoromethoxy)phenyl)ureido)methyl)phenoxy)methyl)benzoate], the 50% inhibitory concentration (IC50) turned out to be 585 nM.

On to `COc1ccc(OC(F)(F)F)cc1NC(=O)NCc1ccccc1OCc1ccc(C(=O)O)cc1` [Compound of Example 8, 4-((2-((3-(2-methoxy-5-(trifluoromethoxy)phenyl)ureido)methyl)phenoxy)methyl)benzoic acid], for which the concentration for half-maximal inhibition (IC50) was 172 nM.

As for `COc1ccc(OC(F)(F)F)cc1NC(=O)NCc1ccccc1OCc1cccc(C(=O)O)c1` [Compound of Example 9, 3-((2-((3-(2-methoxy-5-(trifluoromethoxy)phenyl)ureido)methyl)phenoxy)methyl)benzoic acid], the IC50 was 137 nM.

`COC(=O)c1ccc(COc2ccccc2CNC(=O)Nc2cc(C(F)(F)F)cc(CO)c2OC)cc1` [Compound of Example 10, methyl 4-((2-((3-(3-(hydroxymethyl)-2-methoxy-5-(trifluoromethyl)phenyl)ureido)methyl)phenoxy)methyl)benzoate] gave an IC50 of 156 nM.

The compound `COc1c(CO)cc(C(F)(F)F)cc1NC(=O)NCc1ccccc1OCc1ccc(C(=O)O)cc1` [Compound of Example 11, 4-((2-((3-(3-(hydroxymethyl)-2-methoxy-5-(trifluoromethyl)phenyl)ureido)methyl)phenoxy)methyl)benzoic acid] returned a half-inhibitory concentration (IC50) of 150 nM. This IC50 and that of the compound before are within 1.5-fold of each other.

For the compound `COc1ccc(OC(F)(F)F)cc1NC(=O)NCc1ccccc1OCc1ccc(C(N)=O)cc1` [Compound of Example 12, 4-((2-((3-(2-methoxy-5-(trifluoromethoxy)phenyl)ureido)methyl)phenoxy)methyl)benzamide], it took 38.6 nM to reach half-maximal inhibition (IC50).

For the compound `CNC(=O)c1ccc(COc2ccccc2CNC(=O)Nc2cc(OC(F)(F)F)ccc2OC)cc1` [Compound of Example 13, 4-((2-((3-(2-methoxy-5-(trifluoromethoxy)phenyl)ureido)methyl)phenoxy)methyl)-N-methylbenzamide], inhibition was half-maximal at 96.4 nM (IC50).

The compound `COc1ccc(OC(F)(F)F)cc1NC(=O)NCc1ccccc1OCc1ccc(C(=O)N(C)C)cc1` [Compound of Example 14, 4-((2-((3-(2-methoxy-5-(trifluoromethoxy)phenyl)ureido)methyl)phenoxy)methyl)-N,N-dimethylbenzamide] showed an IC50 of 156 nM.

As to `CCN(CC)CCNC(=O)c1ccc(COc2ccccc2CNC(=O)Nc2cc(OC(F)(F)F)ccc2OC)cc1` [Compound of Example 15, N-(2-(diethylamino)ethyl)-4-((2-((3-(2-methoxy-5-(trifluoromethoxy)phenyl)ureido)methyl)phenoxy)methyl)benzamide], the IC50 amounted to 308 nM.

The compound `COc1ccc(OC(F)(F)F)cc1NC(=O)NCc1ccccc1OCc1ccc(C(=O)NCCN(C)C)cc1` [Compound of Example 16, N-(2-(dimethylamino)ethyl)-4-((2-((3-(2-methoxy-5-(trifluoromethoxy)phenyl)ureido)methyl)phenoxy)methyl)benzamide] showed an IC50 of 163 nM. Compared with the last compound, the IC50 is about 1.9-fold lower.

`CNCCNC(=O)c1ccc(COc2ccccc2CNC(=O)Nc2cc(OC(F)(F)F)ccc2OC)cc1` [Compound of Example 17, 4-((2-((3-(2-methoxy-5-(trifluoromethoxy)phenyl)ureido)methyl)phenoxy)methyl)-N-(2-(methylamino)ethyl)benzamide] displayed an IC50 of 185 nM.

Regarding `COc1ccc(C(F)(F)F)cc1NC(=O)NCc1ccccc1OCc1ccc(C(N)=O)cc1` [Compound of Example 18, 4-((2-((3-(2-methoxy-5-(trifluoromethyl)phenyl)ureido)methyl)phenoxy)methyl)benzamide], the IC50 came out at 23.3 nM.

In turn, `NC(=O)c1ccc(COc2ccccc2CNC(=O)Nc2cccc(C(F)(F)F)c2)cc1` [Compound of Example 19, 4-((2-((3-(3-(trifluoromethyl)phenyl)ureido)methyl)phenoxy)methyl)benzamide] showed an IC50 of 37.4 nM. Against the preceding compound, the IC50 is about 1.6-fold higher.

In turn, `COc1c(CO)cc(C(F)(F)F)cc1NC(=O)NCc1ccccc1OCc1ccc(C(N)=O)cc1` [Compound of Example 20, 4-((2-((3-(3-(hydroxymethyl)-2-methoxy-5-(trifluoromethyl)phenyl)ureido)methyl)phenoxy)methyl)benzamide] came in with an IC50 of 13.5 nM.

`COc1ccc(C(F)(F)F)cc1NC(=O)NCc1ccccc1OCc1cccc(C(N)=O)c1` [Compound of Example 21, 3-((2-((3-(2-methoxy-5-(trifluoromethyl)phenyl)ureido)methyl)phenoxy)methyl)benzamide] had an IC50 of 67.4 nM.

In turn, `COc1c(CO)cc(C(F)(F)F)cc1NC(=O)NCc1ccccc1OCc1cccc(C(N)=O)c1` [Compound of Example 22] registered an IC50 of 28.5 nM.

In turn, `COc1ccc(S(F)(F)(F)(F)F)cc1NC(=O)NCc1ccccc1Oc1ccncc1` [Compound of Example 23, 1-(2-methoxy-5-(pentafluorosulfanyl)phenyl)-3-(2-(pyridin-4-yloxy)benzyl)urea hydrochloride] yielded an IC50 of 78.7 nM.

The compound `COc1ccc(S(F)(F)(F)(F)F)cc1NC(=O)NCc1ccccc1Oc1ccnc(-n2ccnc2)n1` [Compound of Example 24, 1-(2-((2-(1H-imidazol-1-yl)pyrimidin-4-yl)oxy)benzyl)-3-(2-methoxy-5-(pentafluorosulfanyl)phenyl)urea] showed an IC50 of 42.2 nM.

`COC(=O)c1ccc(Oc2ccccc2CNC(=O)Nc2cc(OC(F)(F)F)ccc2OC)cc1` [Compound of Example 25] showed an IC50 of 194 nM.

The compound `COc1ccc(OC(F)(F)F)cc1NC(=O)NCc1ccccc1Oc1ccc(C(=O)O)cc1` [Compound of Example 26] displayed a half-maximal inhibitory concentration (IC50) of 38.3 nM.

The compound `COc1ccc(OC(F)(F)F)cc1NC(=O)NCc1ccccc1Oc1ccc(C(N)=O)cc1` [Compound of Example 27] displayed a concentration for half-maximal inhibition (IC50) of 21 nM.

As to `COc1c(CO)cc(C(F)(F)F)cc1NC(=O)NCc1ccccc1Oc1ccc(C(=O)O)cc1` [Compound of Example 28], the midpoint of inhibition, the IC50, lay at 14.5 nM.

In turn, `COc1c(CO)cc(C(F)(F)F)cc1NC(=O)NCc1ccccc1Oc1ccc(C(N)=O)cc1` [Compound of Example 29] returned an IC50 of 5.98 nM.

Compound `COc1ccc(C(F)(F)F)cc1NC(=O)NCc1ccccc1Oc1ccc(C(=O)O)cc1` [Compound of Example 30] yielded an IC50 of 12.4 nM.

For `COc1ccc(C(F)(F)F)cc1NC(=O)NCc1ccccc1Oc1ccc(C(N)=O)cc1` [Compound of Example 31], the IC50 amounted to 11 nM. The IC50 values of the last two compounds are within 1.5-fold of each other.

Consider `NC(=O)c1ccc(Oc2ccccc2CNC(=O)Nc2cccc(C(F)(F)F)c2)cc1` [Compound of Example 32], for which the IC50 was found to be 17.3 nM. Compared with the last compound, the IC50 is about 1.6-fold higher.

`NC(=O)c1ccc(Oc2ccccc2CNC(=O)Nc2cc(C(F)(F)F)ccc2OC2COC2)cc1` [Compound of Example 33, 4-(2-((3-(2-(oxetan-3-yloxy)-5-(trifluoromethyl)phenyl)ureido)methyl)phenoxy)benzamide] displayed an IC50 of 12.9 nM.

`NC(=O)c1ccc(Oc2ccccc2CNC(=O)Nc2cc(OC(F)(F)F)ccc2OC2COC2)cc1` [Compound of Example 34, 4-(2-((3-(2-(oxetan-3-yloxy)-5-(trifluoromethoxy)phenyl)ureido)methyl)phenoxy)benzamide] gave an IC50 of 22 nM.

In turn, `NC(=O)c1ccc(Oc2ccccc2CNC(=O)Nc2cc(CO)cc(C(F)(F)F)c2)cc1` [Compound of Example 35] came in with a half-inhibitory concentration (IC50) of 12.9 nM. Against the preceding compound, the IC50 is about 1.7-fold lower.
